From patent US8741896B2, “Pyrazolopyrimidine derivatives” (Merck Patent GmbH, priority 2009, dated 2014)

Legend:
PI3Kα = PI3Kα (Homo sapiens, UniProt P42336); experiment: PI3 kinase inhibition bioassay (PI3Kα); format: biochemical
PI3Kδ = PI3Kδ (Homo sapiens, UniProt O00329); experiment: PI3 kinase inhibition bioassay (PI3Kδ); format: biochemical
PI3Kγ = PI3Kγ (Homo sapiens, UniProt P48736); experiment: PI3 kinase inhibition bioassay (PI3Kγ); format: biochemical
PI3Kβ = PI3Kβ (Homo sapiens, UniProt P42338); experiment: PI3 kinase inhibition bioassay (PI3Kβ); format: biochemical
PI3Kβ, sequence (P42338 whole entry, species assumed): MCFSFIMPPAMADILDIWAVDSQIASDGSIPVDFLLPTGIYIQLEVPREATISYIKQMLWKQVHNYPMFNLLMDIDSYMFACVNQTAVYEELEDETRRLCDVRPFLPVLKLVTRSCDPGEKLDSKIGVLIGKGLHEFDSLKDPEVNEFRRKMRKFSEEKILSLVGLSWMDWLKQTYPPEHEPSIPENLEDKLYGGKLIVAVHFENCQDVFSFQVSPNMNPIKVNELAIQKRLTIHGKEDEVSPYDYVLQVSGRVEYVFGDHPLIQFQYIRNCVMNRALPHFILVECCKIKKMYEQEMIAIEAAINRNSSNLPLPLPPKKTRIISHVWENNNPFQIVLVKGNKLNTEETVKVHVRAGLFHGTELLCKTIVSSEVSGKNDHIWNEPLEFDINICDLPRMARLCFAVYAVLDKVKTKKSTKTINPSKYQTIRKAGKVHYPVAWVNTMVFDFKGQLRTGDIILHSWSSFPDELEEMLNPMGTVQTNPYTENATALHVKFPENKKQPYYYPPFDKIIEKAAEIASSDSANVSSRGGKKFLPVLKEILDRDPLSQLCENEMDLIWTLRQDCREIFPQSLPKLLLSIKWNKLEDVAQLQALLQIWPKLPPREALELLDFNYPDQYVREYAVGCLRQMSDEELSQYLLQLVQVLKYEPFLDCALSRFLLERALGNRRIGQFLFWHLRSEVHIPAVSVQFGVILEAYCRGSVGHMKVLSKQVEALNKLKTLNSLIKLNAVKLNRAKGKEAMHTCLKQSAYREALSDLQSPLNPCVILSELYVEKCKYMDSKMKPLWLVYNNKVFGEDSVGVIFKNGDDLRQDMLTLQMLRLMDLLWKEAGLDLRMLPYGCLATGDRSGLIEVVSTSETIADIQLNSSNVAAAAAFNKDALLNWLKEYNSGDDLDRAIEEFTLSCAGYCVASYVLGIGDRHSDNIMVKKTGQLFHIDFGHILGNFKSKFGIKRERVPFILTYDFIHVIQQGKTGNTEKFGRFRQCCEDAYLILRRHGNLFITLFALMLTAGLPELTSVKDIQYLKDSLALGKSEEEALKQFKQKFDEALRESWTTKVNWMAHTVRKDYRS
PI3Kβ, sequence (P27986 whole entry partner, species assumed): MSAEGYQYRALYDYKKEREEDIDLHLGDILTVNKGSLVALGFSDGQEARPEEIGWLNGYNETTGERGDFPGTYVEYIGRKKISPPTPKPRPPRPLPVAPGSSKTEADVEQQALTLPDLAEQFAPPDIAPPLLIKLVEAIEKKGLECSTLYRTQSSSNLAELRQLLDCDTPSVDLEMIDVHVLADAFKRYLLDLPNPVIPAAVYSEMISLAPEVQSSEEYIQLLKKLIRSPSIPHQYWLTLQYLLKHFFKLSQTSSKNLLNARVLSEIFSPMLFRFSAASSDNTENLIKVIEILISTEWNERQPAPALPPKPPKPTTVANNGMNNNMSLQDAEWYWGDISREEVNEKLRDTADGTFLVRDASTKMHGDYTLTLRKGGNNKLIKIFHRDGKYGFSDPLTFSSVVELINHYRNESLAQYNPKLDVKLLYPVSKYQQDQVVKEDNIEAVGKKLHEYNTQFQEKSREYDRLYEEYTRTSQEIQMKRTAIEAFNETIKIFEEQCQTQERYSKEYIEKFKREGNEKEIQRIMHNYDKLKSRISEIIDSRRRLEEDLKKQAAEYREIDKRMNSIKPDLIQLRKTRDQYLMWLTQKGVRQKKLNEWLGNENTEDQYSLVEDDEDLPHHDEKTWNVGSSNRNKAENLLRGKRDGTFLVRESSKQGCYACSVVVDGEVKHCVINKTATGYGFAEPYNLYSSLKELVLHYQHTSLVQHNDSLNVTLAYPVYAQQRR

CK2 protein kinase = CK2 protein kinase (Homo sapiens, UniProt P68400); conditions: cited from earlier work

PI3Kα, sequence (P42336 whole entry, species assumed): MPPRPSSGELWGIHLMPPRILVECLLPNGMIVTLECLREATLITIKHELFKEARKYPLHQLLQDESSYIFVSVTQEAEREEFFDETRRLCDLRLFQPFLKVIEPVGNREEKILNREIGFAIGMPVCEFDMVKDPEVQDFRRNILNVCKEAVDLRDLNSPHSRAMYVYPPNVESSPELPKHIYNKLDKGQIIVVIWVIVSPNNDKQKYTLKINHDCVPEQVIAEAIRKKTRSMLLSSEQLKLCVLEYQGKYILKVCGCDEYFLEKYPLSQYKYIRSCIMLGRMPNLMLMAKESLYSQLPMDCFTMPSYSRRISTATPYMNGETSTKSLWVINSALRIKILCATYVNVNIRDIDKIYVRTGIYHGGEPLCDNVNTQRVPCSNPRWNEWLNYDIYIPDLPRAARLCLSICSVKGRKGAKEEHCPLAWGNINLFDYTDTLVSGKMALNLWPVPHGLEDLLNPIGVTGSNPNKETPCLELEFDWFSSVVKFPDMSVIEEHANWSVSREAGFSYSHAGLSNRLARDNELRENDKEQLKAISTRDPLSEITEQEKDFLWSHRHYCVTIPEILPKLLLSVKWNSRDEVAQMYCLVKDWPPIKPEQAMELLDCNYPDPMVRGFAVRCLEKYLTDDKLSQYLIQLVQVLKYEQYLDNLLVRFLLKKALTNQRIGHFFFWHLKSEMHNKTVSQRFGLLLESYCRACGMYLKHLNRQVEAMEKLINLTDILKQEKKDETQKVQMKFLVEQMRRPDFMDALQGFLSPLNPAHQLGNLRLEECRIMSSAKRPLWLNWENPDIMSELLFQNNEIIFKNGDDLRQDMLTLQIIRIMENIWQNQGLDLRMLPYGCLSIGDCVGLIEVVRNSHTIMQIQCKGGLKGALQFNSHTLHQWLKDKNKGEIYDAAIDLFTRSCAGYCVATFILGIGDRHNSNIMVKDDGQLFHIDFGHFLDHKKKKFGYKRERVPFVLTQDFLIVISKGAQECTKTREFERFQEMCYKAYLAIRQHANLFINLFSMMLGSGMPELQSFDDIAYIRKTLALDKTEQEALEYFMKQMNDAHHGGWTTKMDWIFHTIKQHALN
PI3Kα, sequence (P27986 whole entry partner, species assumed): as the sequence (P27986 whole entry partner, species assumed) above
PI3Kγ, sequence (P48736 whole entry, species assumed): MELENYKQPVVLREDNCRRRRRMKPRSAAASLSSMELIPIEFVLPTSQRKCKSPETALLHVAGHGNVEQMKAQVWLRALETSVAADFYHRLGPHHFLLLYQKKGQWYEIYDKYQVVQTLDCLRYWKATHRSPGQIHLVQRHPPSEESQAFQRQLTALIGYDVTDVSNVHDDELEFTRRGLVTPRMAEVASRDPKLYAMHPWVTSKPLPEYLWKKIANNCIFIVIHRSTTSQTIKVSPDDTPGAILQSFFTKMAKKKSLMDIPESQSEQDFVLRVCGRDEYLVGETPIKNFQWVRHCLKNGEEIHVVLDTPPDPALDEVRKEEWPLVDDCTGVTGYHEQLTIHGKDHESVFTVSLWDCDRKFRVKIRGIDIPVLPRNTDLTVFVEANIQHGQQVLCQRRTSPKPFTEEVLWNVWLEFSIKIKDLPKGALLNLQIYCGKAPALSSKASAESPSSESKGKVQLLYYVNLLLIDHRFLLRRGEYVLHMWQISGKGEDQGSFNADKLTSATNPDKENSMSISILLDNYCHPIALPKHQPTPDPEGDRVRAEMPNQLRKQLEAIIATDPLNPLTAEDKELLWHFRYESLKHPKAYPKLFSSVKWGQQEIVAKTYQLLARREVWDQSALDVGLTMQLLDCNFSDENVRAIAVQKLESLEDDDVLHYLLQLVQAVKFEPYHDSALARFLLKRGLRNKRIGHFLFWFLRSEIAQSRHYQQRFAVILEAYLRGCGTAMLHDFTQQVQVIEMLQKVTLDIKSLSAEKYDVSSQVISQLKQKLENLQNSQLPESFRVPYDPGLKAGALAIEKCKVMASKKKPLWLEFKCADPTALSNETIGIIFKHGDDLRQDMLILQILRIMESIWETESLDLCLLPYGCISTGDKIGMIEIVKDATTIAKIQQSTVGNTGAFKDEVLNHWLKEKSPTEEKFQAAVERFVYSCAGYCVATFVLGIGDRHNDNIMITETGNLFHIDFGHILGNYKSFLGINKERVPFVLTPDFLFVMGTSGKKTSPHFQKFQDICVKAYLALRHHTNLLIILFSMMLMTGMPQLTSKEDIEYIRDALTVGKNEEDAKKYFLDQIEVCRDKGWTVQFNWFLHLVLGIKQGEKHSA
PI3Kδ, sequence (O00329 whole entry, species assumed): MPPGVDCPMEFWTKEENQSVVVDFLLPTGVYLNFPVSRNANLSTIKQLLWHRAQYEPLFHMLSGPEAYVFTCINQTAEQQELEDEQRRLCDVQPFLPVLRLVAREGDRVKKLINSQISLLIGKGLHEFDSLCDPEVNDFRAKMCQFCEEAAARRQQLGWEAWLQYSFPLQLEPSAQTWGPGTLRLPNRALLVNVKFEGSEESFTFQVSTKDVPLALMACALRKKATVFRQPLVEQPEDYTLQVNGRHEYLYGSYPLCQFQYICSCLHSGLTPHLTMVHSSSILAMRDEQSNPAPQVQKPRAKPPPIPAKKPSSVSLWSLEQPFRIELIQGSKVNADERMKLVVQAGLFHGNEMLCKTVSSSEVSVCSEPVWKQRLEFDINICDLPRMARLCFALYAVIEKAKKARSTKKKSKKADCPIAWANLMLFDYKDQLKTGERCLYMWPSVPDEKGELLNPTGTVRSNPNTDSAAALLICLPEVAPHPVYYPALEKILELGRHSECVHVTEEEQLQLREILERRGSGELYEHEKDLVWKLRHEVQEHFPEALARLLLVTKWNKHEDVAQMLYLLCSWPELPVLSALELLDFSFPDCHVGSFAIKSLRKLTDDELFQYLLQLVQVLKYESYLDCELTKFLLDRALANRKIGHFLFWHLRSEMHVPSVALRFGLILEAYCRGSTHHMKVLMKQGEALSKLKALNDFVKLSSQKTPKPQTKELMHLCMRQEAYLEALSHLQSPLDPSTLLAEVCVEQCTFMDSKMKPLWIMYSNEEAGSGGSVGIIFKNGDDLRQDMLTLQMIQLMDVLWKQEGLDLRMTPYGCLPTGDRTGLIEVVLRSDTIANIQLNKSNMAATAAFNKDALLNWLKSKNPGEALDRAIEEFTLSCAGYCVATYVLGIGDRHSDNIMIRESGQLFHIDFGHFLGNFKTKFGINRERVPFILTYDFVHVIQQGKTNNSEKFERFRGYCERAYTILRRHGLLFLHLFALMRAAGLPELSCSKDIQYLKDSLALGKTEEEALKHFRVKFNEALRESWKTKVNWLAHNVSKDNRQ
PI3Kδ, sequence (P27986 whole entry partner, species assumed): as the sequence (P27986 whole entry partner, species assumed) above

| SMILES | IC50 (PI3Kα) | IC50 (PI3Kδ) | IC50 (PI3Kγ) | IC50 (PI3Kβ) | IC50 (CK2 protein kinase) |
| --- | --- | --- | --- | --- | --- |
| Cn1ncc2c(-c3cccc(O)c3)nc(N3CCOCC3)nc21 [Compound A1, 3-(1-methyl-6-morpholin-4-yl-1H-pyrazolo[3,4-d]pyrimidin-4-yl)phenol] | 0.1 to 10 µM | 0.1 to 10 µM | 0.1 to 10 µM | 0.1 to 10 µM | – |
| Cn1ncc2c(-c3cccc(CO)c3)nc(N3CCOCC3)nc21 [Compound A33, [3-(1-methyl-6-morpholin-4-yl-1H-pyrazolo[3,4-d]pyrimidin-4-yl)phenyl]methanol] | 0.1 to 10 µM | 0.1 to 10 µM | 0.1 to 10 µM | 0.1 to 10 µM | – |
| Cn1ncc2c(-c3ccc4cc[nH]c4c3)nc(N3CCOCC3)nc21 [Compound A65, 4-(1H-indol-6-yl)-1-methyl-6-morpholin-4-yl-1H-pyrazolo-[3,4-d]pyrimidine] | > 10 µM | > 10 µM | 0.1 to 10 µM | > 10 µM | – |
| Cn1ncc2c(-c3cccc4[nH]ccc34)nc(N3CCOCC3)nc21 [Compound A97, 4-(1H-indol-4-yl)-1-methyl-6-morpholin-4-yl-1H-pyrazolo[3,4-d]pyrimidine] | 0.1 to 10 µM | 0.1 to 10 µM | > 10 µM | 0.1 to 10 µM | – |
| Cn1ncc2c(-c3ccc4[nH]cnc4c3)nc(N3CCOCC3)nc21 [Compound A129, 4-(1H-benzimidazol-5-yl)-1-methyl-6-morpholin-4-yl-1H-pyrazolo[3,4-d]pyrimidine] | 0.1 to 10 µM | 0.1 to 10 µM | 0.1 to 10 µM | 0.1 to 10 µM | – |
| Cn1ncc2c(-c3cccc4[nH]ncc34)nc(N3CCOCC3)nc21 [Compound A161, 4-(1H-indazol-4-yl)-1-methyl-6-morpholin-4-yl-1H-pyrazolo-[3,4-d]pyrimidine] | 0.1 to 10 µM | 0.1 to 10 µM | 0.1 to 10 µM | 0.1 to 10 µM | – |
| Cn1ncc2c(-c3ccc(N)nc3)nc(N3CCOCC3)nc21 [Compound A193, 5-(1-methyl-6-morpholin-4-yl-1H-pyrazolo[3,4-d]pyrimidin-4-yl)pyridin-2-ylamine] | 0.1 to 10 µM | 0.1 to 10 µM | 0.1 to 10 µM | 0.1 to 10 µM | – |
| Nc1ccc(-c2nc(N3CCOCC3)nc3c2cnn3CC(=O)N2CCCC2)cn1 [Compound A196] | 0.1 to 10 µM | 0.1 to 10 µM | > 10 µM | > 10 µM | – |
| Cn1ncc2c(-c3cnc(N)nc3)nc(N3CCOCC3)nc21 [Compound A225, 5-(1-methyl-6-morpholin-4-yl-1H-pyrazolo[3,4-d]pyrimidin-4-yl)pyrimidin-2-ylamine] | 0.1 to 10 µM | 0.1 to 10 µM | 0.1 to 10 µM | 0.1 to 10 µM | – |
| Nc1ncc(-c2nc(N3CCOCC3)nc3c2cnn3CC(=O)N2CCCC2)cn1 [Compound A228] | 0.1 to 10 µM | 0.1 to 10 µM | 0.1 to 10 µM | 0.1 to 10 µM | – |
| Nc1ncc(-c2nc(N3CCOCC3)nc3c2cnn3CC(=O)N2CCOCC2)cn1 [Compound A229] | 0.1 to 10 µM | 0.1 to 10 µM | 0.1 to 10 µM | 0.1 to 10 µM | – |
| CN1CCN(C(=O)Cn2ncc3c(-c4cnc(N)nc4)nc(N4CCOCC4)nc32)CC1 [Compound A231] | 0.1 to 10 µM | 0.1 to 10 µM | 0.1 to 10 µM | 0.1 to 10 µM | – |
| O=c1cc(N2CCOCC2)oc2c(-c3ccccc3)cccc12 [LY294002] | – | – | – | – | 5 to 10 µM |
